Results as given in patent publication US10632169B2, “Methods of using GM604 in modulating ALS disease biomarkers leading to prognosis and therapeutic treatment for ALS disease” (Genervon Biopharmaceuticals, LLC, priority 2015, dated 2020).
Residues, ends and D or L forms follow the SMILES beside them.

Columns and labels:
surviving motor neurons = conditions: in vivo administration; blocked by anti-MNTF1 monoclonal antibody; cited from earlier work
[1] = system: anterior horn motor neurons isolated from rat lumbar spinal cord explants; conditions: naturally occurring and recombinant MNTF1; U.S. Pat. No. 6,309,877; cited from earlier work
[2] = GALS-001 Phase 2A trial, safety and tolerability; assay type: in vivo, human
Description: A total of twelve patients were enrolled in the ALS Phase 2A study. Six subjects enrolled at Site 1 and six subjects enrolled at Site 2. Dosing was by slow bolus intravenous administration, once a day for 3 times a week for 2 weeks. Eight patients were randomized to receive 320 mg GM604 per dose and four patients to receive placebo. Our inclusion/exclusion criteria required the ALS patients in the Phase 2A trial to be “definite” ALS sufferers according to El Escorial criteria (i.e., the disease progression must involve upper and lower motoneuron and the bulbar region) who had experienced disease onset within 24 months prior to the beginning of the trial. The goal is to enroll fast progressing patients. Our dosing regimen was delivered via intravenous bolus dosing three times a week (Monday, Wednesday, Friday) for two consecutive weeks, for a total of 6 doses. There was no dosing after the two weeks' treatment, and the patients were followed and evaluated for the next ten weeks. The clinical data for the ALSFRS-R, FVC, TUG, and the Grip Strength and HHD were measured at Baseline, Week 2, Week 6, and Week 12.
1. Safety and tolerability were evaluated based on the results of adverse events, vital signs, electrocardiography (ECG) measurements, physical and neurological examinations, safety laboratory monitoring, and hypersensitivity and injection site reactions.

[3] = shown in U.S. Pat. No. 8,673,852; cited from earlier work
[4] = GALS-C compassionate use, clinical observations; assay type: in vivo, human; conditions: during the GALS-C trial
Text: GALS Compassionate Use (GALS-C) A ALS patient was first diagnosed with the disease in Q1 2005 and by Q3 2008 was quadriplegic and on a ventilator. The FDA approved a compassionate-use application of the MNTF6mer known as GM604 for this patient (IND #120052) using a protocol that followed the Phase 2A trial. This program was thus dubbed GALS-C. GALS-C Study Design
8. Exploratory clinical outcome measures will include the rate of decline of the ALS Functional Rating Scale Revised (ALSFRS-R), Forced Vital Capacity (FVC), stabilization or improvement in any clonus or spasticity symptoms, speech, swallowing, drooling, lingual/oral muscle, improved time off vent (self-breathing) and any movement or increase movement of any muscle groups. To estimate the participant's rate of progression prior to treatment, an ALSFRS-R of 48 will be assumed at date of symptom onset. There will be 2 weeks of active treatment, followed by 10 weeks of assessment without active treatment.
This compassionate trial follows the similar protocol and same dosing regimen as in the Phase 2A ALS trial. […]
Since the compassionate patient was very advanced, the usual clinical evaluations such as ALS functional rating scale (ALSFRS), forced vital capacity (FVC), and muscle strength were not used. […] The initial CSF before dosing and the CSF sample after the 6th dose were collected and analyzed. […]

Molecule | Percentage of surviving motor neurons vs untreated controls (surviving motor neurons) | Survival in vitro of anterior horn motor neurons [1] | Headache, GM604-treated patients ([2]; 2 patients of 8) | Puncture site pain, GM604-treated patients ([2]; 3 patients of 8) | Falls, GM604-treated patients ([2]; 4 patients of 8) | Patients with at least 1 Treatment-emergent adverse event (TEAE) ([2]; GM604 treatment group, placebo 4 out of 4) | Grade 1 hypersensitivity reactions ([2]; Visit 5, placebo 1 patient) | Clinical laboratory tests, hematology, urinalysis, ECGs, vital signs, physical and neurological findings vs placebo ([2]; changes over time) | QT or QTcB result ([2]; no GM604 patient above this value) | Rash, GM604-treated patients ([2]; of 8) | Serious adverse events (SAE) ([2]; patient 0203, shortness of breath, judged unrelated to the investigational product) | Deaths or withdrawals due to adverse events ([2]; whole study) | Blood brain barrier penetration [3] | Adverse side effects [4]
MNTF1: motoneuronotrophic factor isolated from rat muscle tissues; recombinant MNTF1-F6 encodes a 33 amino acid sequence (SEQ ID NO:1) (LGTFWGDTLNCWMLSAFSRYARCLAEGHDGPTQ) | markedly higher percentage of surviving motor neurons | selectively enhance the survival | – | – | – | – | – | – | – | – | – | – | – | –
C[C@H](NC(=O)[C@H](Cc1ccc(O)cc1)NC(=O)[C@H](CCCNC(=N)N)NC(=O)[C@H](CO)NC(=O)[C@@H](N)Cc1ccccc1)C(=O)N[C@@H](CCCNC(=N)N)C(=O)O [GM604, FSRYAR] (H-FSRYAR-OH) | – | – | 25% | 37.5% | 50% | 5 out of 8 | 1 patient | no clinically meaningful differences | ≤ 450 ms | 2 patients | 1 | No deaths or withdrawals due to adverse events occurred | able to penetrate the blood brain barrier | no adverse side effects were noted
